Data taken from ChEMBL document CHEMBL2057181 (Bioorg Med Chem Lett, 2012).

What was measured:
[1] = Inhibition of Haemonchus contortus phosphoethanolamine methyltransferase2 conversion of phosphomonomethylethanolamine to phosphodimethylethanolamine by radiochemical assay in presence of S-adenosylmethionine
[2] = Inhibition of Haemonchus contortus phosphoethanolamine methyltransferase1-mediated conversion of phosphoethanolamine to phosphomonomethylethanolamine by radiochemical assay in presence of S-adenosylmethionine
[3] = biological target: Histamine N-methyltransferase (Homo sapiens, UniProt P50135); assay: Inhibition of histamine N-methyltransferase by radiochemical assay
[4] = biological target: T1, Phosphoethanolamine N-methyltransferase (Plasmodium falciparum, UniProt Q8IDQ9); assay: Inhibition of Plasmodium falciparum phosphoethanolamine methyltransferase using phospethanolamine as substrate by radiochemical assay in presence of S-adenosylmethionine
T1 sequence (Q8IDQ9 whole entry): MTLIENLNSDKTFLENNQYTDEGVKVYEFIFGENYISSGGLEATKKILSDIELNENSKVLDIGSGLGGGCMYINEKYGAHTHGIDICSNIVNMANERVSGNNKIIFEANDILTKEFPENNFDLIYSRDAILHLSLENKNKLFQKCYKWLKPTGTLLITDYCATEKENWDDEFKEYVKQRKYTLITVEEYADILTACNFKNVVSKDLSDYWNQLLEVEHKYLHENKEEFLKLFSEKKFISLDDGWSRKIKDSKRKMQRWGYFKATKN

Histamine N-methyltransferase, sequence (P50135 whole entry): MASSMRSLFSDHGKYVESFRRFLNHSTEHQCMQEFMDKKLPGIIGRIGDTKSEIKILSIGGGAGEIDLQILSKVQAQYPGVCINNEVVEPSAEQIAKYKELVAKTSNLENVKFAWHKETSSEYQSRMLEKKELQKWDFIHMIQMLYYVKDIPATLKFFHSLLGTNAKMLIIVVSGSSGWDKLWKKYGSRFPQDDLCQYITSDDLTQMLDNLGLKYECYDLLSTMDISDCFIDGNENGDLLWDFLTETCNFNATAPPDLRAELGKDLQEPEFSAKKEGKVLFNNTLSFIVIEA

IC50 [1] [µM] | IC50 [2] [µM] | Ki [3] [µM] | SMILES | IC50 [4] [µM]
3000 | 3000 | 0.019 | CCN(CC)Cc1cc(Nc2ccnc3cc(Cl)ccc23)ccc1O | –
– | – | – | CCN(CC)CCCC(C)Nc1ccnc2cc(Cl)ccc12 (stereo not given) [CHLOROQUINE] | 554
– | – | – | COc1cc(NC(C)CCCN)c2ncccc2c1 (stereo not given) [PRIMAQUINE] | 460
